Calls of active or inactive are those of the source. No cut-off for these calls is given here.
Tests used:
[1] = Cytotoxicity against human PBMC assessed as cell viability at 10 um after 24 hrs by WST-1 assay relative to control; assay type: cell-based; conditions: PBMC (peripheral blood mononuclear cells), read-out: Activity
[2] = test system: PBMC; assay: Anti-inflammatory activity in human PBMC assessed as inhibition of LPS-induced IL-1beta production at 10 uM after 24 hrs by ELISA relative to control; assay type: functional
[3] = test system: PBMC; assay: Anti-inflammatory activity in human PBMC assessed as inhibition of LPS-induced TNFalpha production at 10 uM after 24 hrs by ELISA relative to control; assay type: functional
[4] = test system: PBMC; assay: Anti-inflammatory activity in human PBMC assessed as inhibition of LPS-induced IL-1beta production after 24 hrs by ELISA; assay type: functional, cell-based
[5] = test system: PBMC; assay: Anti-inflammatory activity in human PBMC assessed as inhibition of LPS-induced TNFalpha production after 24 hrs by ELISA; assay type: functional, cell-based
[6] = test system: Mus musculus; assay: Anti-inflammatory activity in LPS-induced acute lung inflammation C57BL/6 mouse model assessed as inhibition of neutrophils recruitment in BALF at 5 mg/kg, ip bid administered 1 hr before and 10 hrs after LPS treatment measured 24 hrs post LPS treatment by flow cytometry relative to control; assay type: functional; conditions: C57BL/6, ip
[7] = test system: Mus musculus; assay: Anti-inflammatory activity in LPS-induced acute lung inflammation C57BL/6 mouse model assessed as inhibition of TNFalpha level in BALF at 5 mg/kg, ip bid administered 1 hr before and 10 hrs after LPS treatment measured 24 hrs post LPS treatment by ELISA relative to control; assay type: functional; conditions: C57BL/6, ip
[8] = test system: Mus musculus; assay: Antiallodynic activity in C57BL/6J mouse model of sciatic nerve ligation-induced neuropathic pain assessed as increase in paw withdrawal latency time at 5 mg/kg, ip bid for 17 consecutive days starting from 2 to 3 weeks post surgery measured on day 11 during compound dosing by Von Frey test; assay type: functional, organism-based
[9] = test system: Mus musculus; assay: Anti-inflammatory activity in LPS-induced acute lung inflammation C57BL/6 mouse model assessed as inhibition of lymphocytes recruitment in BALF at 5 mg/kg, ip bid administered 1 hr before and 10 hrs after LPS treatment measured 24 hrs post LPS treatment by flow cytometry relative to control; assay type: functional; conditions: C57BL/6, ip
[10] = test system: Mus musculus; assay: Toxicity in C57BL/6 mouse assessed as effect on number of inflammatory cells recovered in BALF at 5 mg/kg, ip bid administered 1 hr before and 10 hrs after LPS treatment measured 24 hrs post LPS treatment by flow cytometry; assay type: organism-based; conditions: in vivo
[11] = test system: Mus musculus; assay: Antiallodynic activity in C57BL/6J mouse model of sciatic nerve ligation-induced neuropathic pain assessed as increase in paw withdrawal latency time at 1 mg/kg, ip bid for 17 consecutive days starting from 2 to 3 weeks post surgery measured on day 16 during compound dosing by Von Frey test; assay type: functional, organism-based
[12] = test system: Mus musculus; assay: Toxicity in C57BL/6J mouse model of sciatic nerve ligation-induced neuropathic pain assessed as behavioral changes at 1 to 5 mg/kg, ip bid for 17 consecutive days starting from 2 to 3 weeks post surgery; assay type: organism-based; conditions: in vivo
[13] = test system: Mus musculus; assay: Toxicity in C57BL/6J mouse model of sciatic nerve ligation-induced neuropathic pain assessed as body weight loss at 1 mg/kg, ip bid for 17 consecutive days starting from 2 to 3 weeks post surgery; assay type: organism-based; conditions: in vivo
[14] = test system: Mus musculus; assay: Toxicity in C57BL/6J mouse model of sciatic nerve ligation-induced neuropathic pain assessed as body weight loss at 5 mg/kg, ip bid for 17 consecutive days starting from 2 to 3 weeks post surgery relative to control; assay type: organism-based; conditions: in vivo
[15] = test system: Mus musculus; assay: Antiallodynic activity in C57BL/6J mouse model of sciatic nerve ligation-induced neuropathic pain assessed as increase in paw withdrawal latency time at 1 mg/kg, ip bid for 17 consecutive days starting from 2 to 3 weeks post surgery by Von Frey test; assay type: functional, organism-based

N=C(N)Nc1cc(-c2ccc(Cl)cc2)ccn1
viability at 24 h, 10 µM [1]: 24%
inhibition at 10 µM [2]: 97%
inhibition at 10 µM [3]: 69%

COc1cccc(-c2cccc(NC(=N)N)n2)c1
viability at 24 h, 10 µM [1]: 104%
inhibition at 10 µM [2]: 2%
inhibition at 10 µM [3]: 7%

COc1ccccc1-c1ccc(NC(=N)N)nc1
viability at 24 h, 10 µM [1]: 78%
inhibition at 10 µM [2]: 4%
IC50 [4]: > 30 µM
IC50 [5]: 7.7 µM
inhibition at 10 µM [3]: 56%

N=C(N)Nc1ccc(-c2ccccc2Cl)cn1
viability at 24 h, 10 µM [1]: 55%
inhibition at 10 µM [2]: 96%
inhibition at 10 µM [3]: 82%

N=C(N)Nc1ccc(-c2ccccc2)cn1
viability at 24 h, 10 µM [1]: 97%
inhibition at 10 µM [2]: -1%
inhibition at 10 µM [3]: -9%

N=C(N)Nc1cc(-c2ccccc2Cl)ccn1
viability at 24 h, 10 µM [1]: 42%
inhibition at 10 µM [2]: 23%
inhibition at 10 µM [3]: 65%

N=C(N)Nc1ccc(-c2cccc(Cl)c2)cn1
viability at 24 h, 10 µM [1]: 94%
inhibition at 10 µM [2]: 8%
IC50 [4]: 17.5 µM
IC50 [5]: 5.5 µM
inhibition at 10 µM [3]: 52%

N=C(N)Nc1cccc(-c2cccc(Cl)c2)n1
viability at 24 h, 10 µM [1]: 40%
inhibition at 10 µM [2]: 80%
inhibition at 10 µM [3]: 74%

N=C(N)Nc1ccc(-c2ccc(Cl)cc2)cn1
viability at 24 h, 10 µM [1]: 23%
inhibition at 10 µM [2]: 97%
inhibition at 10 µM [3]: 72%

N=C(N)Nc1cccc(-c2ccccc2Cl)n1
viability at 24 h, 10 µM [1]: 74%
inhibition at 10 µM [2]: 9%
IC50 [4]: > 30 µM
IC50 [5]: 19.2 µM
inhibition at 10 µM [3]: 47%

COc1ccc(-c2ccc(NC(=N)N)nc2)cc1
viability at 24 h, 10 µM [1]: 34%
inhibition at 10 µM [2]: 48%
inhibition at 10 µM [3]: 58%

N=C(N)Nc1cccc(-c2ccc(Cl)cc2)n1
viability at 24 h, 10 µM [1]: 35%
inhibition at 10 µM [2]: 77%
inhibition at 10 µM [3]: 72%

COc1ccc(-c2ccnc(NC(=N)N)c2)cc1
viability at 24 h, 10 µM [1]: 34%
inhibition at 10 µM [2]: 86%
inhibition at 10 µM [3]: 69%

N=C(N)Nc1cccc(-c2ccccc2)n1
viability at 24 h, 10 µM [1]: 100%
inhibition at 10 µM [2]: 3%
IC50 [4]: > 30 µM
IC50 [5]: 18.6 µM
inhibition at 10 µM [3]: 18%

NC1=Nc2cc(-c3ccccc3)ccc2CN1
inhibition in vivo at 5 mg/kg [6]: 62%
viability at 24 h, 10 µM [1]: 81%
inhibition in vivo at 5 mg/kg [7]: 49%
inhibition at 10 µM [2]: 93%
Activity [8]: Active
IC50 [4]: 3.7 µM
IC50 [5]: 1 µM
inhibition in vivo at 5 mg/kg [9]: 63%
inhibition at 10 µM [3]: 76%
Activity [10]: Non-Toxic
Activity [11]: Active
Activity [12]: Non-Toxic

COc1ccc(C2CNC(=O)C2)cc1OC1CCCC1 (centres undefined) [ROLIPRAM]
viability at 24 h, 10 µM [1]: 104%
IC50 [5]: 0.13 µM
inhibition at 10 µM [3]: 79%

NC1=Nc2cccc(-c3ccccc3)c2CN1
viability at 24 h, 10 µM [1]: 111%
inhibition at 10 µM [2]: 0%
inhibition at 10 µM [3]: 7%

COc1ccccc1-c1ccc2c(c1)CNC(N)=N2
viability at 24 h, 10 µM [1]: 126%
inhibition at 10 µM [2]: 1%
inhibition at 10 µM [3]: 13%

N=C(N)Nc1ncccc1-c1ccccc1
viability at 24 h, 10 µM [1]: 108%
inhibition at 10 µM [2]: 1%
inhibition at 10 µM [3]: 11%

COc1ccccc1-c1cccc(NC(=N)N)n1
viability at 24 h, 10 µM [1]: 106%
inhibition at 10 µM [2]: 1%
inhibition at 10 µM [3]: 7%

NC(N)=Nc1cc(-c2ccccc2)ccn1
viability at 24 h, 10 µM [1]: 72%
Activity [13]: Non-Toxic
Activity [14]: 5%
Activity [10]: Non-Toxic

CNCCC=C1c2ccccc2CCc2ccccc21
Activity [15]: inactive
Activity [8]: Active

COc1cccc(-c2ccc(NC(=N)N)nc2)c1
viability at 24 h, 10 µM [1]: 116%
inhibition at 10 µM [2]: 4%
inhibition at 10 µM [3]: 25%

NC(=S)Nc1cc(-c2ccccc2)ccn1
viability at 24 h, 10 µM [1]: 86%
inhibition at 10 µM [2]: 1%
inhibition at 10 µM [3]: 4%

NC1=Nc2ccc(-c3ccccc3)cc2CN1
viability at 24 h, 10 µM [1]: 90%
inhibition at 10 µM [3]: 22%

COc1ccccc1-c1ccnc(NC(=N)N)c1
viability at 24 h, 10 µM [1]: 99%
inhibition at 10 µM [2]: -1%
inhibition at 10 µM [3]: 10%

COc1cccc(-c2ccnc(NC(=N)N)c2)c1
viability at 24 h, 10 µM [1]: 66%
inhibition at 10 µM [2]: 29%
inhibition at 10 µM [3]: 56%

Nc1nc2ccc(-c3ccccc3)cc2[nH]1
viability at 24 h, 10 µM [1]: 114%
inhibition at 10 µM [2]: 3%
inhibition at 10 µM [3]: 15%

N=C(N)Nc1cc(-c2ccc(C(F)(F)F)cc2)ccn1
viability at 24 h, 10 µM [1]: 24%
inhibition at 10 µM [2]: 98%
inhibition at 10 µM [3]: 71%

NC1=Nc2cc(-c3ccccc3)ccc2CCN1
viability at 24 h, 10 µM [1]: 100%
inhibition at 10 µM [2]: -4%
inhibition at 10 µM [3]: -7%

COc1ccc(-c2cccc(NC(=N)N)n2)cc1
viability at 24 h, 10 µM [1]: 94%
inhibition at 10 µM [2]: -6%
inhibition at 10 µM [3]: 27%

N=C(N)Nc1cc(-c2ccccc2)ccn1
inhibition in vivo at 5 mg/kg [6]: 39%
inhibition at 10 µM [2]: 91%
Activity [15]: Active
IC50 [4]: 5.8 µM
IC50 [5]: 1.2 µM
inhibition in vivo at 5 mg/kg [9]: 52%
inhibition at 10 µM [3]: 67%

N=C(N)Nc1cc(-c2cccc(Cl)c2)ccn1
viability at 24 h, 10 µM [1]: 38%
inhibition at 10 µM [2]: 53%
inhibition at 10 µM [3]: 64%
